Two compounds from ChEMBL document CHEMBL1155500, “The metabolites of mangrove endophytic fungus Zh6-B1 from the South China Sea” (2010) can be followed below.

The assay in a line: Cytotoxicity against human KV/MDR cells at 100 uM after 48 hrs by MTT assay. The assay is classed as functional. The conditions noted are these: read-out: GI.

In the case of `C[C@@H]1C[C@@H](O)CCCc2cc(O)cc(O)c2C(=O)O1`, the inhibition of growth at 100 µM came out at 41.6%.

For the compound `C[C@@H]1C[C@H](O)CCCc2cc(O)cc(O)c2C(=O)O1`, the inhibition of growth at 100 µM was found to be 42.4%.
